For nine compounds, inhibition results are on record in patent US6673772B2, “Dipeptide compounds and their use as antiviral agents” (Sumitomo Pharmaceuticals Company Limited, priority 2000, dated 2004).

This test concerns the target T1, recombinant HIV-1 protease (Human immunodeficiency virus type 1 group M subtype B, UniProt P04585).
T1 construct: 10.5 nM HIV-1 protease
Nature of the test: Measurement of HIV protease inhibitory activity. It counts as biochemical. The settings on record: 50 nM compound; 10.5 nM HIV-1 protease, pH 6.5, 37° C., 60 minutes; read-out: HIV protease inhibition rate (%) at 50 nM. How it is done: Measurement of HIV protease inhibitory activity
The protease inhibitory activity was measured according to the method reported by T. Mimoto et al., J. Med. Chem., 42, 1789-1802 (1999) by using a recombinant HIV-1 protease (see Biochemistry, 250, 9, 264 (1990)) and a synthesized peptide substrate (H-Ser-Gln-Asn-Tyr-Pro-Ile-Val-OH). Specifically, reaction solutions (15 μl each) containing any one of the compounds synthesized in the above Examples 1-15 and Reference Examples 1-4, an inhibitor in which a known anti-AIDS agent (nelfinavir) is dissolved in DMSO in different concentrations, 10.5 nM HIV-1 protease, 20 mM synthesized peptide substrate, and 100 mM MES buffer solution (pH 6.5) were incubated at 37° C. for 60 minutes. Peptide fragments produced by cleaving the Tyr-Pro bonds in the synthesized peptide substrate was quantitatively measured by reverse phase HPLC.

Take `COc1ccc(C[C@H](NC(=O)c2cccc(O)c2C)[C@H](O)C(=O)N2CSC(C)(C)[C@H]2C(=O)NCc2cc(F)ccc2C)cc1` [Ex. 2, (R)-N-(5-fluoro-2-methylbenzyl)-3-[(2S,3S)-2-hydroxy-3-(3-hydroxy-2-methyl-benzoyl)amino-4-(4-methoxyphenyl)butanoyl]-5,5-dimethyl-1,3-thiazolidine-4-carboxamide]: the inhibition at 0.05 µM was found to be 97%.

As for `COc1ccc(C[C@H](NC(=O)c2ccc(F)c(O)c2C)[C@H](O)C(=O)N2CSC(C)(C)[C@H]2C(=O)NCc2ccccc2C)cc1` [Ex. 3, (R)-N-(2-methylbenzyl)-3-[(2S,3S)-2-hydroxy-3-(4-fluoro-3-hydroxy-2-methyl-benzoyl)amino-4-(4-methoxyphenyl)butanoyl]5,5-dimethyl-1,3-thiazolidine-4-carboxamide], the inhibition at 0.05 µM was determined as 93%.

Consider `COc1ccc(C[C@H](NC(=O)c2cccc(N)c2Cl)[C@H](O)C(=O)N2CSC(C)(C)[C@H]2C(=O)NCc2ccccc2C)cc1` [Ex. 4, (R)-N-(2-methylbenzyl)-3-[(2S,3S)-2-hydroxy-3-(3-amino-2-chlorobenzoyl)amino-4-(4-methoxyphenyl)butanoyl]-5,5-dimethyl-1,3-thiazolidine-4-carboxamide], for which the inhibition at 0.05 µM worked out at 91%.

With `CCOc1ccc(C[C@H](NC(=O)c2cccc(O)c2C)[C@H](O)C(=O)N2CSC(C)(C)[C@H]2C(=O)NCc2ccccc2C)cc1` [Ex. 5, (R)-N-(2-methylbenzyl)-3-[(2S,3S)-2-hydroxy-3-(3-hydroxy-2-methylbenzoyl)amino-4-(4-ethoxyphenyl)butanoyl]-5,5-dimethyl-1,3-thiazolidine-4-carboxamide], the inhibition at 0.05 µM was determined as 95%.

As for `Cc1ccccc1CNC(=O)[C@H]1N(C(=O)[C@@H](O)[C@H](Cc2ccc3c(c2)OCO3)NC(=O)c2cccc(O)c2C)CSC1(C)C` [Ex. 6, (R)-N-(2-methylbenzyl)-3-[(2S,3S)-2-hydroxy-3-(3-hydroxy-2-methylbenzoyl)amino-4-(3,4-methylenedioxyphenyl)butanoyl]-5,5-dimethyl-1,3-thiazolidine-4-carboxamide], the inhibition at 0.05 µM is 97%.

Take `CCCOc1ccc(C[C@H](NC(=O)c2cccc(O)c2C)[C@H](O)C(=O)N2CSC(C)(C)[C@H]2C(=O)NCc2ccccc2C)cc1` [Ex. 7, (R)-N-(2-methylbenzyl)-3-[(2S,3S)-2-hydroxy-3-(3-hydroxy-2-methylbenzoyl)amino-4-(4-n-propoxyphenyl)butanoyl]-5,5-dimethyl-1,3-thiazolidine-4-carboxamide]: the inhibition at 0.05 µM turned out to be 97%.

As for `Cc1ccccc1CNC(=O)[C@H]1N(C(=O)[C@@H](O)[C@H](Cc2ccc(OC(C)C)cc2)NC(=O)c2cccc(O)c2C)CSC1(C)C` [Ex. 8, (R)-N-(2-methylbenzyl)-3-[(2S,3S)-2-hydroxy-3-(3-hydroxy-2-methylbenzoyl)amino-4-(4-isopropoxyphenyl)butanoyl]-5,5-dimethyl-1,3-thiazolidine-4-carboxamide], the inhibition at 0.05 µM was 96%.

As to `Cc1ccccc1CNC(=O)[C@H]1N(C(=O)[C@@H](O)[C@H](Cc2ccc(C(C)C)cc2)NC(=O)c2cccc(O)c2C)CSC1(C)C` [Ex. 10, (R)-N-(2-methylbenzyl)-3-[(2S,3S)-2-hydroxy-3-(3-hydroxy-2-methylbenzoyl)amino-4-(4-isopropylphenyl)butanoyl]-5,5-dimethyl-1,3-thiazolidine-4-carboxamide], the inhibition at 0.05 µM is 96%.

As to `Cc1ccccc1CNC(=O)[C@H]1N(C(=O)[C@@H](O)[C@H](Cc2ccc(Cl)cc2)NC(=O)c2cccc(O)c2C)CSC1(C)C` [Ex. 11, (R)-N-(2-methylbenzyl)-3-[(2S,3S)-2-hydroxy-3-(3-hydroxy-2-methylbenzoyl)amino-4-(4-chlorophenyl)butanoyl]-5,5-dimethyl-1,3-thiazolidine-4-carboxamide], the inhibition at 0.05 µM came to 97%.

For orientation: inhibition means the drop in the measured response relative to a control, in per cent.
